Reference: the supplement of paper PMC10307832

Columns and labels:
Assay in all cases: relative viability (nuclei count vs DMSO), 5 days (fraction); higher = more cells survive
A-427 = tested on: A-427
Procedure, shortened: (§1)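 Lung cancer cell lines in 1536-well plates were dosed by pin tool the day after seeding, either with one drug alone or with a fixed anchor-drug dose plus five library-drug doses (not always all listed) in √10 steps. After 5 days, cells were fixed and their nuclei stained in one step (final 0.05% Triton X-100, 1% formaldehyde, 1 ug/ml Hoechst), then counted on 4× images. Relative viability is the nuclei count in treated wells divided by that in vehicle wells. Values are medians of duplicate plates.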

NCI-H650 = tested on: NCI-H650
Procedure, shortened: as §1

NCI-H1993 = tested on: NCI-H1993
Procedure, shortened: as §1

NCI-H1915 = tested on: NCI-H1915
Procedure, shortened: as §1

NCI-H1793 = tested on: NCI-H1793
Procedure, shortened: as §1

NCI-H520 = tested on: NCI-H520
Procedure, shortened: as §1

NCI-H1666 = tested on: NCI-H1666
Procedure, shortened: as §1

NCI-H838 = tested on: NCI-H838
Procedure, shortened: as §1

EKVX = tested on: EKVX
Procedure, shortened: as §1

NCI-H23 = tested on: NCI-H23
Procedure, shortened: as §1

NCI-H1648 = tested on: NCI-H1648
Procedure, shortened: as §1

LOU-NH91 = tested on: LOU-NH91
Procedure, shortened: as §1

NCI-H460 = tested on: NCI-H460
Procedure, shortened: as §1

RERF-LC-KJ = tested on: RERF-LC-KJ
Procedure, shortened: as §1

SW 1573 = tested on: SW 1573
Procedure, shortened: as §1

LC-2-ad = tested on: LC-2-ad
Procedure, shortened: as §1

LU99A = tested on: LU99A
Procedure, shortened: as §1

LCLC-97TM1 = tested on: LCLC-97TM1
Procedure, shortened: as §1

NCI-H1650 = tested on: NCI-H1650
Procedure, shortened: as §1

NCI-H1355 = tested on: NCI-H1355
Procedure, shortened: as §1

PC-3 [JPC-3] = tested on: PC-3 [JPC-3]
Procedure, shortened: as §1

NCI-H2347 = tested on: NCI-H2347
Procedure, shortened: as §1

BEN = tested on: BEN
Procedure, shortened: as §1

Q: For `CCCCCCCCCCCC1=C(O)C(=O)C=C(O)C1=O` [Embelin] + Nc1ncn([C@H]2C[C@H](O)[C@@H](CO)O2)c(=O)n1 [Decitabine] (partner 2 µM), which relative viability (A-427; first compound 0.08 µM) is on record?
A: 0.494

Q: And the relative viability (A-427; first compound 0.8 µM)?
A: 0.555

Q: And the relative viability (A-427; first compound 2.53 µM)?
A: 0.561

Q: What about the relative viability (A-427; first compound 8 µM) of the same molecule?
A: 0.54

Q: What about the relative viability (NCI-H650; first compound 0.08 µM) of the same molecule?
A: 0.322

Q: And the relative viability (NCI-H650; first compound 0.8 µM)?
A: 0.371

Q: What about the relative viability (NCI-H650; first compound 2.53 µM) of the same molecule?
A: 0.337

Q: What about the relative viability (NCI-H650; first compound 8 µM) of the same molecule?
A: 0.297

Q: And the relative viability (NCI-H1993; first compound 0.08 µM)?
A: 0.481

Q: And the relative viability (NCI-H1993; first compound 0.8 µM)?
A: 0.608

Q: And the relative viability (NCI-H1993; first compound 2.53 µM)?
A: 0.627

Q: And the relative viability (NCI-H1993; first compound 8 µM)?
A: 0.548

Q: And the relative viability (NCI-H1915; first compound 0.08 µM)?
A: 0.265

Q: And the relative viability (NCI-H1915; first compound 0.8 µM)?
A: 0.241

Q: And the relative viability (NCI-H1915; first compound 2.53 µM)?
A: 0.263

Q: What about the relative viability (NCI-H1915; first compound 8 µM) of the same molecule?
A: 0.264

Q: What about the relative viability (NCI-H1793; first compound 0.08 µM) of the same molecule?
A: 0.586

Q: And the relative viability (NCI-H1793; first compound 0.8 µM)?
A: 0.625

Q: What about the relative viability (NCI-H1793; first compound 2.53 µM) of the same molecule?
A: 0.505

Q: What about the relative viability (NCI-H1793; first compound 8 µM) of the same molecule?
A: 0.549

Q: What about the relative viability (NCI-H520; first compound 0.08 µM) of the same molecule?
A: 0.478

Q: And the relative viability (NCI-H520; first compound 0.8 µM)?
A: 0.558

Q: What about the relative viability (NCI-H520; first compound 2.53 µM) of the same molecule?
A: 0.552

Q: What about the relative viability (NCI-H520; first compound 8 µM) of the same molecule?
A: 0.441

Q: What about the relative viability (NCI-H1666; first compound 0.08 µM) of the same molecule?
A: 0.712

Q: What about the relative viability (NCI-H1666; first compound 0.8 µM) of the same molecule?
A: 0.812

Q: And the relative viability (NCI-H1666; first compound 2.53 µM)?
A: 0.78

Q: And the relative viability (NCI-H1666; first compound 8 µM)?
A: 0.757

Q: What about the relative viability (NCI-H838; first compound 0.08 µM) of the same molecule?
A: 0.478

Q: And the relative viability (NCI-H838; first compound 0.8 µM)?
A: 0.485

Q: And the relative viability (NCI-H838; first compound 2.53 µM)?
A: 0.502

Q: And the relative viability (NCI-H838; first compound 8 µM)?
A: 0.321

Q: And the relative viability (EKVX; first compound 0.08 µM)?
A: 0.41

Q: What about the relative viability (EKVX; first compound 0.8 µM) of the same molecule?
A: 0.4

Q: What about the relative viability (EKVX; first compound 2.53 µM) of the same molecule?
A: 0.314

Q: What about the relative viability (EKVX; first compound 8 µM) of the same molecule?
A: 0.313

Q: And the relative viability (NCI-H23; first compound 0.08 µM)?
A: 0.258

Q: And the relative viability (NCI-H23; first compound 0.8 µM)?
A: 0.37

Q: And the relative viability (NCI-H23; first compound 2.53 µM)?
A: 0.329

Q: What about the relative viability (NCI-H23; first compound 8 µM) of the same molecule?
A: 0.29

Q: And the relative viability (NCI-H1648; first compound 0.08 µM)?
A: 0.577

Q: And the relative viability (NCI-H1648; first compound 0.8 µM)?
A: 0.549

Q: And the relative viability (NCI-H1648; first compound 2.53 µM)?
A: 0.548

Q: And the relative viability (NCI-H1648; first compound 8 µM)?
A: 0.365

Q: What about the relative viability (LOU-NH91; first compound 0.08 µM) of the same molecule?
A: 0.825

Q: What about the relative viability (LOU-NH91; first compound 0.8 µM) of the same molecule?
A: 0.893

Q: What about the relative viability (LOU-NH91; first compound 2.53 µM) of the same molecule?
A: 0.852

Q: And the relative viability (LOU-NH91; first compound 8 µM)?
A: 0.801

Q: What about the relative viability (NCI-H460; first compound 0.08 µM) of the same molecule?
A: 0.455

Q: And the relative viability (NCI-H460; first compound 0.8 µM)?
A: 0.511

Q: What about the relative viability (NCI-H460; first compound 2.53 µM) of the same molecule?
A: 0.577

Q: What about the relative viability (NCI-H460; first compound 8 µM) of the same molecule?
A: 0.254

Q: What about the relative viability (RERF-LC-KJ; first compound 0.08 µM) of the same molecule?
A: 0.775

Q: What about the relative viability (RERF-LC-KJ; first compound 0.8 µM) of the same molecule?
A: 0.652

Q: What about the relative viability (RERF-LC-KJ; first compound 2.53 µM) of the same molecule?
A: 0.774

Q: And the relative viability (RERF-LC-KJ; first compound 8 µM)?
A: 0.514

Q: And the relative viability (SW 1573; first compound 0.08 µM)?
A: 0.422

Q: And the relative viability (SW 1573; first compound 0.8 µM)?
A: 0.674

Q: What about the relative viability (SW 1573; first compound 2.53 µM) of the same molecule?
A: 0.654

Q: What about the relative viability (SW 1573; first compound 8 µM) of the same molecule?
A: 0.456

Q: And the relative viability (LC-2-ad; first compound 0.08 µM)?
A: 0.788

Q: And the relative viability (LC-2-ad; first compound 0.8 µM)?
A: 0.79

Q: And the relative viability (LC-2-ad; first compound 2.53 µM)?
A: 0.795

Q: And the relative viability (LC-2-ad; first compound 8 µM)?
A: 0.782

Q: What about the relative viability (LU99A; first compound 0.08 µM) of the same molecule?
A: 1.01

Q: And the relative viability (LU99A; first compound 0.8 µM)?
A: 1.08

Q: What about the relative viability (LU99A; first compound 2.53 µM) of the same molecule?
A: 0.942

Q: What about the relative viability (LU99A; first compound 8 µM) of the same molecule?
A: 0.91

Q: And the relative viability (LCLC-97TM1; first compound 0.08 µM)?
A: 0.241

Q: What about the relative viability (LCLC-97TM1; first compound 0.8 µM) of the same molecule?
A: 0.264

Q: And the relative viability (LCLC-97TM1; first compound 2.53 µM)?
A: 0.266

Q: And the relative viability (LCLC-97TM1; first compound 8 µM)?
A: 0.235

Q: What about the relative viability (NCI-H1650; first compound 0.08 µM) of the same molecule?
A: 0.354

Q: And the relative viability (NCI-H1650; first compound 0.8 µM)?
A: 0.362

Q: And the relative viability (NCI-H1650; first compound 2.53 µM)?
A: 0.457

Q: What about the relative viability (NCI-H1650; first compound 8 µM) of the same molecule?
A: 0.384

Q: And the relative viability (NCI-H1355; first compound 0.08 µM)?
A: 0.333

Q: What about the relative viability (NCI-H1355; first compound 0.8 µM) of the same molecule?
A: 0.394

Q: And the relative viability (NCI-H1355; first compound 2.53 µM)?
A: 0.421

Q: What about the relative viability (NCI-H1355; first compound 8 µM) of the same molecule?
A: 0.358

Q: What about the relative viability (PC-3 [JPC-3]; first compound 0.08 µM) of the same molecule?
A: 0.776

Q: And the relative viability (PC-3 [JPC-3]; first compound 0.8 µM)?
A: 0.882

Q: And the relative viability (PC-3 [JPC-3]; first compound 2.53 µM)?
A: 0.919

Q: What about the relative viability (PC-3 [JPC-3]; first compound 8 µM) of the same molecule?
A: 0.821

Q: And the relative viability (NCI-H2347; first compound 0.08 µM)?
A: 0.618

Q: What about the relative viability (NCI-H2347; first compound 0.8 µM) of the same molecule?
A: 0.72

Q: And the relative viability (NCI-H2347; first compound 2.53 µM)?
A: 0.671

Q: And the relative viability (NCI-H2347; first compound 8 µM)?
A: 0.592

Q: And the relative viability (BEN; first compound 0.08 µM)?
A: 0.717

Q: What about the relative viability (BEN; first compound 0.8 µM) of the same molecule?
A: 0.813

Q: And the relative viability (BEN; first compound 2.53 µM)?
A: 0.812

Q: What about the relative viability (BEN; first compound 8 µM) of the same molecule?
A: 0.559
